{"source": "patent US20160319277A1", "about": "“METHODS OF IMPROVED PROTEIN PRODUCTION USING MIRNAs AND SIRNAs” (THE JOHNS HOPKINS UNIVERSITY, priority 2015, published 2016)", "key": {"[1]": {"test_system": "HEK 293 cell lines expressing luciferase, GPC3-hFc, NTSR1-GFP, SERT-GFP", "assay": "Validation transfection of siRNAs against ten selected genes in four HEK 293 cell lines expressing different reporter proteins", "assay_type": "cell-based, human", "details": "40 nM, 1 representative siRNA per gene; for expression of reporter proteins: luciferase, GPC3-hFc, NTSR1-GFP, SERT-GFP", "procedure": "Ten targeted genes were selected and tested in four HEK 293 cell lines expressing different reporter proteins, glycan-3 hFc-fision protein (GPC3-hFc), neurotensin receptor type 1-GFP (NTSR1-GFP) and serotonin transporter-GFP (SERT-GFP), using 1 representative siRNA for each gene. Transfection was performed in 12-well plate format. 500 μL of serum free DMEM media containing siRNA and Lipofectamine™ RNAiMax was incubated in each well for 20 min at ambient temperature and 500 μL DMEM containing 20% FBS and cells was then added for transfection. The final siRNA concentration in each well was 40 nM. Lipofectamine™ RNAiMax volume and cell seeding number in each well have been optimized for each cell line (Table 2).\n5 days after transfection, clarified cell culture supernatant was used for determination of GPC3-hFc concentration by ELISA and cells were detached and counted by trypan blue exclusion using a CEDEX™ cell quantification system (Roche, Mannheim, Germany). AffiniPure™ F(ab′)2 Fragment Goat Anti-Human IgG (min X Bov, Ms, Rb Sr Prot, Cat. 109-006-170, Jackson Immunology, 5 μg/mL in PBS) was used to coat a 96-well plate (50 μL per well) at 4° C. overnight. After blocking the plate with 2% BSA in PBS, 50 μl of pre-diluted cell culture supernatant was added, and the plate was incubated at room temperature for 1 h to allow binding to occur. After the plate was washed twice with PBS containing 0.05% Tween 20, Peroxidase-conjugated AffiniPure™ Goat-anti-human IgG (Cat. 109-035-098, Jackson Immunology) was added at 1:4000 dilution (50 μL/well). Following incubation at room temperature for 1 hr, the plate was washed 4 times and signals were detected with Peroxidase Substrate System (KPL).\n3 days after transfection, cells were induced with 1 μg/mL tetracycline. 24 hours later, cells from each well were detached with non-enzymatic cell dissociation buffer (Gibco, Cat. No. 13150-016) and washed twice with cold PBS. Cell densities were adjusted to 0.5 million cells/ml with PBS and then subjected to flow cytometry analysis. Green fluorescence was measured with Guava Easycyte 5HT™ and Incyte™ software (Millipore). The green fluorescence signal and cell gating were adjusted using uninduced T-REx-293-NTSR1-GFP cells, with more than 99.5% of the cells in low fluorescence range (<100). The setting was kept the same for all cell samples."}, "[2]": {"test_system": "T-REx-293-NTSR1-GFP cells", "assay": "High-throughput human miRNA mimic library screen, image-based per cell green fluorescence (NTSR1-GFP expression)", "details": "per cell green fluorescence intensity", "procedure": "T-REx-293-NTSR1-GFP cells were screened with a miRNA mimic library (Qiagen) based on Sanger miRBase™ 13.0 and consisting of 875 miRNAs mimics. For transfection, 0.8 pmol of each mimic was spotted to 384 well plate wells (Corning) and 20 μL of serum-free DMEM containing 0.1 μL of Lipofectamine™ RNAiMax (Life Technologies) was then added to each well. This lipid-miRNA mixture was incubated at ambient temperature for 30 min prior to adding 2000 cells in 20 μL of DMEM containing 20% certified FBS (Gibco). Transfected cells were incubated at 37° C. in 5% CO2 for 72 hours and induced with 1 μg/mL tetracycline for 24 hours for NTSR1-GFP expression. Cells were then fixed with 2% paraformaldehyde (Electron Microscopy Sciences), stained with Hoechst™ 33342 (Life Technologies) for 45 minutes and gently washed with PBS. Plates were imaged with an ImageXpress Micro XL™ (Molecular Devices). Total cell number and per cell green fluorescence intensity were calculated using MetaXpress™ software (Molecular Devices) employing the Multi-Wavelength Cell Scoring™ application module. […] A full column of positive control siRNA targeting GFP (GFP-22 siRNA, Qiagen) was also used as on-plate reference for transfection efficiency. The median absolute deviation (MAD)-based z-score was calculated for each sample."}, "[3]": {"test_system": "CMV-Luc2-HygroHEK293 cell line", "assay": "Validation of miRNAs with luciferase-expressing cells (ONE-Glo / CellTiter-Glo, 12-well)", "assay_type": "cell-based, human", "details": "40 nM miRNA, 72 h, 12-well, versus siN.C.", "procedure": "CMV-Luc2-HygroHEK293 cell line constitutively expressing luciferase is purchased from Promega. Validation transfections were performed in 12-well plates with miScript miRNA mimics (Qiagen, Cat. No. 219600-S0), SilencerSelect™ Negative Control #2 and lethal control siRNA (Qiagen AllStars Cell Death Control™) served as a control for transfection efficiency. Cells were transfected in duplicates as described above in the screening method with the following modification: 0.1 million cells were transfected with 40 nM miRNA using 6.25 ul Lipofectamine™ RNAiMax in a total volume of 1 mL of media. 72 hours after transfection, 500 μL of ONE-Glo™ Reagent (Promega) was added to one set of replicates for luciferase activity quantification and 500 μL of CellTiter-Glo™ Reagent (Promega) was added to the second set of replicates for viable cell density measurement. All plates were incubated at room temperature for 20 minutes to stabilize luminescent signal and then measured with SpectraMax i3™ plate reader (Molecular Devices). Per cell luciferase production was calculated from overall luciferase activity and viable cell number."}, "NTSR1": {"test_system": "NTSR1", "assay": "[3H]NT binding assay on detergent-solubilized cells for functional expression of NTSR1", "assay_type": "cell-based", "details": "specific [3H]NT binding, 2 nM", "procedure": "Validation transfections were performed in 12-well plates with miScript™ miRNA mimics (Qiagen, Cat. No. 219600-S0), SilencerSelect™ Negative Control #2 and lethal control siRNA (Qiagen AllStars Cell Death Control™) served as a control for transfection efficiency. Cells were transfected as described for screening except 0.15 million cells were transfected with 40 nM miRNA using 6.25 ul Lipofectamine™ RNAiMax in a total volume of 1 mL of media. 72 hours after transfection, cells were induced with 1 μg/mL tetracycline. 24 hours later, cells from each well were detached with non-enzymatic cell dissociation buffer (Gibco, Cat. No. 13150-016) and washed twice with cold PBS. Cell densities and viability were determined by trypan blue exclusion using a CEDEX™ cell quantification system (Roche, Mannheim, Germany). Based on the counts, cell densities were adjusted to 0.5 million cells/ml with PBS and then subject to flow cytometry analysis. The remaining cells were pelleted and frozen on dry ice for [^3H]NT binding assays.\nThe detergents n-Dodecyl-β-D-maltoside (LM), 3-[(3-cholamidopyropyl) dimethylammonio]-1-propane sulfonate (CHAPS) and cholesteryl hemisuccinate Tris salt (CHS) were obtained from Anatrace. Cell pellets from 2 mL of suspension culture were suspended in Tris-glycerol-NaCl buffer. Then the detergents LM, CHAPS and CHS were added to give a final buffer composition of 50 mM TrisHCl pH 7.4, 200 mM NaCl, 30% (v/v) glycerol, 1% (w/v) LM, and 0.6% (w/v) CHAPS and 0.12% (w/v) CHS in a total volume of 0.5 mL. The samples were placed on a rotating mixer at 4° C. for 1 hour. Cell debris and non-solubilized material were removed by ultracentrifugation (TL100 rotor, 60 k rpm, 4° C., 30 min in Optima Max™ bench-top ultracentrifuge, Beckman), and the supernatants containing detergent-solubilized NTSR1 were used to determine the total number of expressed receptors by a detergent-based radio-ligand binding assay (see below).\nTritiated neurotensin agonist [^3H]NT ([3,11-tyrosyl-3,5-^3H(N)]-pyro[…] SEQ ID NO:27) was purchased from Perkin Elmer. Ligand-binding assays with detergent-solubilized receptors were carried out in TEBB assay buffer (50 mM Tris pH 7.4, 1 mM EDTA, 40 μg/mL bacitracin, 0.1% BSA) containing 0.1% (w/v) LM, 0.2% (w/v) CHAPS and 0.04% (w/v) CHS. For one-point assays, receptors were incubated with 2 nM [^3H]NT on ice for 1 hour in a volume of 150 μL. The concentration of [^3H]NT used was at least 5-fold above the apparent dissociation constants for detergent-solubilized NTSR1 to allow high receptor occupancy. Separation of the receptor-ligand complex from free ligand (100 μL) was achieved by centrifugation-assisted gel filtration using Bio-Spin™ 30 Tris columns (BioRad), equilibrated with RDB buffer (50 mM Tris-HCl, pH 7.4, 1 mM EDTA, 0.1% (w/v) LM, 0.2% (w/v) CHAPS, 0.04% (w/v) CHS). Non-specific [^3H]NT binding of 220 dpm was subtracted from total binding to calculate the total amount of receptors in T-REx-293-NTSR1-GFP cells. The number of functional NTSR1 was estimated by specific [^3H]NT binding assuming one ligand-binding site per receptor molecule. The number of cells in the assay was derived by cell counting at cell harvest. This approach led to the calculation of the parameter “receptors/cell”."}, "HEK-GPC3-hFc cell line": {"test_system": "HEK-GPC3-hFc cell line", "assay": "Validation of miRNAs with GPC3-hFc-expressing cells (ELISA and cell count)", "assay_type": "cell-based, human", "details": "40 nM miRNA, 6 days after transfection, versus siN.C.", "procedure": "HEK-GPC3-hFc cell line constitutively secreting glypican-3 hFc-fusion protein (GPC3-hFc) was a gift from the National Cancer Institute of the NIH. Cells were grown in DMEM supplemented with 10% FBS in a humidified incubator set at 37° C. and 5% CO2.\nCells were transfected in 12-well plates as described above in the screening method with the following modification: 0.15 million cells were transfected with 40 nM miRNA using 6.25 ul Lipofectamine™ RNAiMax in a total volume of 1 mL of media. 6 days after transfection, cell culture supernatant was collected and cleared using centrifuge for GPC3-hFc concentration determination with ELISA and cells were detached and counted by trypan blue exclusion using a CEDEX™ cell quantification system (Roche, Mannheim, Germany). Per cell GPC3-hFc production can be calculated from overall GPC3-hFc yield and viable cell number.\nAffiniPure™ F(ab′)2 Fragment Goat Anti-Human IgG (min X Bov, Ms, Rb Sr Prot, Cat. 109-006-170, Jackson Immunology) was used to coat a 96-well plate at 5 μg/mL in PBS buffer, 50 μL per well, at 4° C. overnight. After the plate was blocked with 2% BSA in PBS buffer, pre-diluted cell culture supernatant was added, and the plate was incubated at room temperature for one hour to allow binding to occur. After the plate was washed twice with PBS containing 0.05% Tween 20, Peroxidase-conjugated AffiniPure™ Goat-anti-uman IgG (Cat. 109-035-098, Jackson Immunology) was added at 1:4000 dilutions, 50 ul/well. Following incubating at room temperature for one hour, the plate was washed 4 times and detected with Peroxidase Substrate System (KPL)."}}, "data": [{"substance": "INTS1 siRNA: 1 representative siRNA for gene INTS1 used in validation transfection; sequence not stated (guide AGAUCUUUGUCAAGGUGUATT; other strand without entry, further chemistry not given here; listed as Homo sapiens)", "values": [{"measurement": "viable cell number", "setting": "[1]", "result": "significantly reduced viable cell number"}, {"measurement": "expression of reporter proteins", "setting": "[1]", "result": "consistently improved"}]}, {"substance": "PPP2R1A siRNA: 1 representative siRNA for gene PPP2R1A used in validation transfection; sequence not stated (guide CUUCGACAGUACUUCCGGATT; other strand without entry, further chemistry not given here; listed as Homo sapiens)", "values": [{"measurement": "viable cell number", "setting": "[1]", "result": "minimal negative effects"}, {"measurement": "expression of reporter proteins", "setting": "[1]", "result": "consistently improved"}]}, {"substance": "UUGGGGAAACGGCCGCUGAGUG [miR-2110]", "values": [{"measurement": "Signal relative to negative control (%)", "setting": "[2]", "result": 160, "unit": "%"}, {"measurement": "MAD-based z-score", "setting": "[2]; 72 h after transfection plus 24 h tetracycline induction", "result": 2.3}, {"measurement": "improvement of luciferase expression (per cell luciferase activity)", "setting": "[3]", "result": "relevant for improving luciferase expression"}, {"measurement": "functional neurotensin receptor molecules per cell", "setting": "NTSR1", "result": "13.8 million functional neurotensin receptor molecules per cell"}, {"measurement": "improvement of per cell GPC3-hFc secretion", "setting": "HEK-GPC3-hFc cell line", "result": "enhanced per cell GPC3-hFc secretion"}]}]}
